Laboratory results: EP4768487A1, “FUSED LACTAM RING COMPOUND AND USE THEREOF” (Chengdu Zenitar Biomedical Technology Co., Ltd., priority 2023, dated 2025)
Where two headings read alike, the source gives them in different places.

Legend:
PARP1 = molecular target: T1, PARP1 (Homo sapiens, UniProt P09874); test: PARP1 enzyme assay (histone-coated plate, chemiluminescence); type: biochemical; details: PARP1 0.02 nM, DNA 0.8 nM, NAD+ 3.5 µM; read-out: PARP-1 IC50
T1 construct: purchased BPS 80501

[1] = system: BRCA wild-type DLD-1 cells; test: Anti-proliferative activity against cells (CCK8): DLD-1; type: cell-based; details: Homo sapiens, 72 h + 96 h culture
In short: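 DLD-1 cells (1000/well) in RPMI-1640 with 10% FBS, treated 24 h after plating with PARPi at 0, 1 or 10 µM final. Cultured 72 h, medium exchanged with re-added PARPi, then a further 96 h; read-out by CCK8.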

[2] = Cerebrospinal fluid and plasma distribution in vivo; details: rat, male rats, intravenous 5 mg/kg, n = 1
Protocol: Experimental procedures: The compound was weighed out, a small amount of DMSO was added, and then a sodium chloride solution for injection was added to prepare a 5 mg·mL^-1 compound solution for later administration. […] 10 µL of the plasma and 10 µL of the cerebrospinal fluid were each added to a centrifuge tube, and 40 µL of acetonitrile containing 20 ng·mL^-1 internal standard SAHA was added for precipitation. […] The supernatant was collected and transferred to a sample vial for later analysis. Range of standard curve: 1-1000 ng·mL^-1.

[3] = system: BRCA-mutated MDA-MB-436 cells; test: Anti-proliferative activity against cells (CCK8): MDA-MB-436; type: cell-based; details: Homo sapiens, 72 h + 96 h culture
[4] = cerebrospinal fluid, read-out: Cerebrospinal fluid

T1 sequence (P09874 whole entry): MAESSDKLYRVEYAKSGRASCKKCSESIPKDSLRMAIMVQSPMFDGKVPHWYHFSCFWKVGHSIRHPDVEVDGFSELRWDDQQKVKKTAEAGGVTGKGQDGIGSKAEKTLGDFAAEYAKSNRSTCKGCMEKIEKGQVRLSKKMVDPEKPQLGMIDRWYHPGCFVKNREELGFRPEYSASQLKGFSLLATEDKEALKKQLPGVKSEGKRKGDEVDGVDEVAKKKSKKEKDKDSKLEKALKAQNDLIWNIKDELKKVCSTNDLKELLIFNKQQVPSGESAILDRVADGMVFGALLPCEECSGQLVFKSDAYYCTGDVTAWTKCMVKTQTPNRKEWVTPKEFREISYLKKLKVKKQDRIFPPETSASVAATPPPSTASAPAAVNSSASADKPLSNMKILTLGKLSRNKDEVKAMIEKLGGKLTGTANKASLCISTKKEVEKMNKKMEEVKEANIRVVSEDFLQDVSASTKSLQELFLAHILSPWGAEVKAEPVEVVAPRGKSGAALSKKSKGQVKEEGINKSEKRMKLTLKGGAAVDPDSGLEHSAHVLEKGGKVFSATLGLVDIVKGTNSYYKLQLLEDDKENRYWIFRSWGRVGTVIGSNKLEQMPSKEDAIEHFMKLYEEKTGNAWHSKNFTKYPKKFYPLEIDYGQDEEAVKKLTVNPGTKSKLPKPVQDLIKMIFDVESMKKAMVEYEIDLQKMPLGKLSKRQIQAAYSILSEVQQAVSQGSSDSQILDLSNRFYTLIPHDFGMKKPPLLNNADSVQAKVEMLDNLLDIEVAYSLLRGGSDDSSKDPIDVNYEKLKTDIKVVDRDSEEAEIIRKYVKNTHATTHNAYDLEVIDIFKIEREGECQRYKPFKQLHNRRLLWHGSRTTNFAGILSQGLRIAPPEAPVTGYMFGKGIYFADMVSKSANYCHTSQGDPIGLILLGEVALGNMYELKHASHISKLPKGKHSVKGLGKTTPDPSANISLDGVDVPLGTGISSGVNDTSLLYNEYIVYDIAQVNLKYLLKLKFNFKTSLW

Row | SMILES | IC50 (PARP1) | IC50 [1] | concentration at 0.25 h [2, 4] | concentration at 2 h [2, 4] | concentration at 0.25 h ([2]; plasma, read-out: Plasma) | concentration at 2 h ([2]; plasma, read-out: Plasma) | IC50 [3]
1 | CNC(=O)c1ccc(N2CCN(CC3Cc4[nH]c(=O)c(C)cc4CO3)CC2)c(F)n1 (stereo not drawn) [Example 39, 6-Fluoro-N-methyl-5-(4-((3-methyl-2-oxo-1,5,7,8-tetrahydro-2H-pyrano[4,3-b]pyridin-7-yl)methyl)piperazin-1-yl)picolinamide] | 50 to 500 nM | > 1000 nM | 103 ng/g | 26 ng/g | 8200 ng/mL | 4890 ng/mL | –
2 | [2H]C([2H])([2H])NC(=O)c1ccc(N2CCN(C[C@H]3CCc4nc(C)c(=O)[nH]c4C3)CC2)c(F)n1 [Example 82, (S)-6-Fluoro-N-(methyl-d3)-5-(4-((2-methyl-3-oxo-3,4,5,6,7,8-hexahydroquinoxalin-6-yl)methyl)piperazin-1-yl)picolinamide] | – | > 1000 nM | 119 ng/g | 0 ng/g | 2740 ng/mL | 77 ng/mL | –
3 | CNC(=O)c1ccc(N2CCN(C[C@H]3CCc4nc(C)c(=O)[nH]c4C3)CC2)c(C)n1 [Example 47, (S)-N,6-Dimethyl-5-(4-((2-methyl-3-oxo-3,4,5,6,7,8-hexahydroquinoxalin-6-yl)methyl)piperazin-1-yl)picolinamide] | ≤ 50 nM | > 1000 nM | 64 ng/g | 13 ng/g | 1010 ng/mL | 43 ng/mL | 4 nM
4 | CNC(=O)c1ccc(N2CCN(CC3COc4cc(C)c(=O)[nH]c4C3)CC2)c(F)n1 (stereo not drawn) [Example 101, 6-Fluoro-N-methyl-5-(4-((7-methyl-6-oxo-3,4,5,6-tetrahydro-2H-pyrano[3,2-b]pyridin-3-yl)methyl)piperazin-1-yl)picolinamide] | ≤ 50 nM | > 1000 nM | 52 ng/g | 8 ng/g | 2820 ng/mL | 592 ng/mL | –
5 | CNC(=O)c1ccc(N2CCN(CC3Cc4[nH]c(=O)c(Cl)cc4CO3)CC2)c(F)n1 (stereo not drawn) [Example 64, 5-(4-((3-Chloro-2-oxo-1,5,7,8-tetrahydro-2H-pyrano[4,3-b]pyridin-7-yl)methyl)piperazin-1-yl)-6-fluoro-N-methylpicolinamide] | 50 to 500 nM | > 1000 nM | 102 ng/g | 0 ng/g | 1620 ng/mL | 503 ng/mL | –
